From patent US10232043B2, “Photoactivated molecules for light-induced modulation of the activity of electrically excitable cells and methods of using the same” (UNIVERSITY OF SOUTHERN CALIFORNIA, priority 2015, dated 2019) come the findings set out here.

“Also recorded” adds a separate entry of the source.

One series has as its system chromaffin cells. Briefly: Cell-attached patch test for membrane perforation. Type of series: cell-based, mouse. Conditions: in patch pipette, RubpyC17 18 μM, 10 min, amphotericin B within 5 min. The source says:
(§1) FIGS. 21A-21H depict data from various experiments related to characteristics of RubpyC17-loaded cells. […] Inset images shown to the right of trace confirmed proper integration of RubpyC17 in patched cells. FIGS. 21C-21E show the light-induced action potential firing in chromaffin cells was not due to biophysical changes in voltage-gated ion channels as there were no significant changes in current-voltage relationships (21C-21D) nor in steady-state activation curve (21E) in RubpyC17-loaded chromaffin cells before (open circle) or during (open circle) light illumination. […] Peak inward currents from each stimulation jump were plotted against corresponding stimulating voltages (n=6). […] Data from representative cell is shown (n=5). […] Currents resulting from capacitor-like behavior of chromaffin cell membranes during hyperpolarizing jumps to −85 mV from a resting membrane potential of −80 mV were recorded 5 min following giga-seal formation for amphoterecin B (bottom trace) or 10 min following giga-seal formation for RubpyC17 (top trace).
Finally, to test whether illumination of RubpyC17 incorporated in cell membranes causes nonspecific membrane poration or other damage, 18 μM RubpyC17 was loaded inside a patch pipette and attached to a cell (gigaseal formation) in the cell-attached configuration. This is the same configuration used routinely for perforated-patch recording. […]

The subject of series [1] is whole-mount retinas from RCS rats. Briefly: Whole-mount retina multi-electrode recording. Type of series: cell-based, rat. The conditions noted are these: photoreceptor-degenerate retina, 100 micromolar for 30 minutes, 480 nm. The source says:
FIG. 26 illustrates data from whole-mount retinas from RCS rats. […] Each bin represents the frequency of spikes for 1 second. Before Rubpy treatment (14A), illumination at 480 nm elicited minimal change in spike frequency. […] Downward arrows mark the time of 100 ms (1st) and 1 second (2nd to fourth) light stimuli
The retina will be freshly dissected from Royal College of Surgeons (RCS) rats (9 months or older to ensure total loss of photoreceptors). The whole-mount retina will then be placed onto a multi-electrode array with the ganglion cell layer side facing the electrodes and is held down on the array using a lightly weighted porous membrane. Extracellular field potentials are recorded from 15 or 75 μm diameter electrodes using an MEA1060-Up amplifier and MC Rack software (Multi-Channel Systems). The activity of the retinal in response to illumination is monitored before and after PVN incubation. The retina is continuously perfused with oxygenated (95% O2, 5% CO2), heated (32C) Ames' Medium for baseline activity. The retina is then perfused with Ames' Medium containing PVN for 30 min to 1 hr, followed by 10 min wash with regular Ames' Medium before recording in Ames' Medium with 5-10 mM ascorbate. The retina will be illuminated by white LED light through a bandpass excitation filter (460-500 nm) with durations of 100 μs, 1 ms, 10 ms, 100 ms, […] and 30 s. […]

The test system of series [2] is cell lines and primary cells. Description: Cell tolerance to RubpyC17 incubation (gigaseal stability, viability). The series is classed as cell-based. Here is the method: However, in several embodiments, other organic ligands coupled to other transition metals are also used, with reduced and/or non-existent adverse side effects. […] Excessive and prolonged whole cell incubation with RubpyC17 (e.g., >10 μM for >5 min) may result in cell toxicity, since a stable gigaseal cannot be stably maintained in those cells. At this time, the mechanism behind the adverse effects on cell health upon RubpyC17 overexposure is not yet fully known. Since perforation was not achieved when a small patch of membrane was exposed to a high dose of RupbyC17, it was hypothesized that when an entire cell is overexposed to RubpyC17, there may be sufficient random interactions between excess RubpyC17 complex and endogenous surface molecules (i.e., proteins, carbohydrates, sugars), triggering signals that lead to cell health deterioration. However, when used in its appropriate dose range (e.g., <about 10 μM for cell lines and <about 2 μM for primary cells, according to one embodiment), RubpyC17 is tolerated by cells and consistently confers light sensitivity.

The test system of series [3] is endogenous ion channels of chromaffin cells. Briefly: Voltage-clamp current-voltage relationship and steady-state activation. Conditions: before and during light illumination. The series is classed as cell-based, mouse.
From the text: as §1
To examine whether light-activated RubpyC17 can directly interact and open or block endogenous ion channels, HEK293T cells were preincubated with RubpyC17, and patch-clamped in a voltage-clamp configuration. […]

In the case of `CCCCCCCCCCCCCCCCCc1ccnc(-c2cc(C)ccn2)c1.F[P-](F)(F)(F)(F)F.F[P-](F)(F)(F)(F)F.[Ru+2].c1ccc(-c2ccccn2)nc1.c1ccc(-c2ccccn2)nc1` [RubpyC17, [Ru(bpy)2(bpy-C17)](PF6)2], the “capacitive charging transient (membrane perforation)” value in the series with chromaffin cells is “an increase in the capacitive charging transient was not detected; also recorded: did not perforate chromaffin cells”. Also, the “light-induced action potential firing / spike frequency” value in series [1] (listed as Rubpy) is recorded as “spike frequency increased”; in series [1] (listed as Rubpy-C17) it was “respond to illumination by firing action potentials”. Besides, the results for the “dose range tolerated by cells” value in series [2] (cell lines) and in series [2] (primary cells) were under 10 µM and under 2 µM, respectively. In addition, in series [2] (chromaffin cells, ~30 min with RubpyC17), the viability after incubation entry was “continued viability of chromaffin cells”. Further, the “whole cell incubation concentration that may result in cell toxicity” value in series [2] (for >5 min, stable gigaseal not maintained) was over 10 µM. Further, the “biophysical properties of endogenous ion channels” value in series [3] is listed as “does not alter the biophysical properties of endogenous ion channels”.
